Counter-ions that a name gives are not always drawn.
What was measured:
HepG2 cells [1] = assay: Intracellular lipid peroxidation inhibition by antioxidants (NBD-TEEPO assay); format: cell-based, human; details: 200 μM AA or 300 μM tBHP, 50 μM antioxidant, 45 minutes
Procedure: Human hepatoma cells (HepG2 cells) were cultured with DMEM medium (containing 10% FBS, 1% Penicillin-Streptomycin and 1×MEM non-essential amino acids) in a CO2 incubator (37° C., 5% CO2). Passaging was performed when 60-70% subconfluent state was reached. DMEM media (phenol red free, containing 1% Penicillin-Streptomycin) was used for various measurements. HepG2 cells were seeded in a 96-well plate at 10,000 cells/well. The cells were incubated for 24 hours to adhere. AA (200 μM) or tBHP (0 to 300 μM), antioxidant (50 μM), and probe (5.0 μM) were added to the cells in DMEM medium (0.5% DMSO, 0.5% acetonitrile), and after 45 minutes, the fluorescence intensity was measured at an excitation wavelength of 470 nm and a fluorescence wavelength of 530 nm.

HepG2 cells [2] = assay: Secondary screening, Core Library (MTT assay); format: cell-based, human; details: 50 μM compound, 100 μM AA or tBHP, 24 hours
Procedure: As a cell-based screening for examining the cell death inhibitory activity, an assay using human hepatoma-derived HepG2 cells and AA and tBHP as radical initiators is performed, and the cell viability is measured. The activity value is determined from the cell viability value based on the following expression: Activity value=100(ViabilitySample−ViabilityControl(+))/(ViabilityControl(−)−ViabilityControl(+)) • ViabilitySample: Cell viability for with reaction initiator and with each compound (n=1) • ViabilityControl(+): Cell viability for with reaction initiator and with each compound • ViabilityControl(−): Cell viability for without reaction initiator and without each compound
For the compounds, 10 mM 100% DMSO solutions (dispensed at 5.0 µL/well) were provided from Drug Discovery Initiative, the University of Tokyo. 495 μL of DMEM medium for measurement was added, and 1.0% DMSO solution containing 100 μM of the compound was prepared. This solution was dispensed by 80 μL with Biomek NXP into a measuring plate on which cells were seeded in advance. To the test compound (100 μM 1.0% DMSO), 64 μL of DMEM medium, 16 μL of PBS in which AA (1000 μM, 5.0% ethanol) or tBHP (1000 μM) was dissolved were manually dispensed. The final concentration was 5.0 μM NBD-TEEPO compound, 50 μM test compound, and 100 μM AA or tBHP in DMEM medium (0.5% DMSO, 0.5% acetonitrile). After 24 hours, the medium was exchanged, and MTT solution (0.5 mg/mL, 0.5% DMSO) was added. Then, cells were incubated for 24 hours, and the solution was removed. 100 μL of DMSO was added, and the absorbance at 630 nm was measured. The cell viability was calculated according to the expression described herein, with regarding the case without AA or tBHP as 100%.

[3] = not told; cited from earlier work
HepG2 cells [4] = assay: Tertiary screening, Core Library (NBD-TEEPO assay); format: cell-based, human; details: 50 μM compound, 200 μM AA or 300 μM tBHP
Procedure: The Core Library of Drug Discovery Initiative, the University of Tokyo, includes structural analogs for each compound. Then, secondary screening was also performed for structural analog compounds for each candidate compound in the same manner as Example 13 and the activity values were evaluated.
(§1) Specifically, the nine hit compounds, Compound Nos. 7, 19, 39, 48, 52, 64, 73, 78, 80, of the secondary screening had 5, 2, 4, 6, 6, 5, 5, 10, 2 structural analogs, respectively, thus, a total 45 structural analogs were taken. Then, including the original 9 compounds, a total 54 compounds were subjected to tertiary screening, and the activity values were calculated in the same manner.
(§2) For the evaluation of cytotoxicity, 50 μM antioxidant was added to HepG2 cells in DMEM medium (0.5% DMSO), and after incubation at 37° C. for 72 hours, the cell viability was measured. • 4) The activity values of the two-added systems in each of the assay using NBD-TEEPO and the MTT assay were plotted (FIG. 15C and FIG. 16C).

HepG2 cells [5] = assay: Cytotoxicity evaluation at tertiary screening (MTT, compound alone); format: cell-based; details: 50 μM compound alone, 72 hours
Procedure: To 1.0×10^4 HepG2 cells, 50 μM compound were added, and cell viability after 72 hours was measured by an MTT assay.
as §2

HepG2 cells [6] = assay: Secondary screening, Core Library (NBD-TEEPO assay); format: cell-based, human; details: 50 μM compound, 200 μM AA (45 minutes) or 300 μM tBHP (60 minutes); high activity values in both systems
Procedure: In the screening by the cell-based assay method, activity values were determined from the values of fluorescence intensity measured in each screening using AA or tBHP as a reaction initiator, based on the following expression: Activity value=100(AUCSample−AUCBackground)/(AUCControl−AUCBackground) • AUCSample: Area under the curve calculated from the fluorescence intensity for with reaction initiator and with each compound (n=1) • AUCControl: Area under the curve calculated from fluorescence intensity for with reaction initiator and without each compound • AUCBackground: Area under the curve calculated from fluorescence intensity for without reaction initiator and without each compound
For the compounds, 10 mM 100% DMSO solutions (dispensed at 5.0 µL/well) were provided from Drug Discovery Initiative, the University of Tokyo. 495 μL of DMEM medium for measurement was added, and a 1.0% DMSO solution containing 100 μM of the compound was prepared. This solution was dispensed by 80 μL with Biomek NXP into a measuring plate on which cells were seeded in advance. To the test compound (100 μM 1.0% DMSO), 64 μL of DMEM medium (1.25% acetonitrile) containing 12.5 M NBD-TEEPO compound, and 16 μL of PBS in which AA (2000 μM, 5.0% ethanol) or tBHP (3000 μM) was dissolved were manually dispensed. The final concentration was 50 μM test compound and 200 μM AA or 300 μM tBHP in DMEM medium (0.5% DMSO, 0.5% acetonitrile).
The reaction mixture was mixed at 37° C., and the fluorescence intensity at an excitation wavelength of 470 nm and a fluorescence wavelength of 530 nm was measured over time every 3 minutes. The AUC was calculated from the fluorescence intensity for 45 minutes in the AA-added system or 60 minutes in the tBHP-added system, and the activity value of each test compound was calculated according to the expression described herein.

[7] = test system: lipid peroxidation reaction in liposomes (Fe^2+ system); assay: NBD-TEEPO assay in artificial lipid membranes, Fe2+ system; format: biochemical; details: FeSO4 1 mM, Eda 0-20 μM, after 60 minutes
Procedure: (§3) Probes (NBD-TEEPO compound) (5.0 μM) and liposomes (2.5 mg/mL Egg PC, 0.1 mg/mL DCP) were mixed in phosphate buffer (10 mM, pH 7.4, 0.5% DMSO, 0.5% acetonitrile) at 37° C. AAPH (0-20 mM) or FeSO4 (0-2.0 mM) was added to the mixture, and the lipid peroxidation reaction was started. After 40 minutes in the AAPH system or after 60 minutes in the Fe^2+ system, the fluorescence intensity was measured at an excitation wavelength of 470 nm and a fluorescence wavelength of 530 nm.

HepG2 cells [8] = assay: Tertiary screening, Core Library (MTT assay); format: cell-based, human; details: 50 μM compound, 100 μM AA or tBHP, 24 hours
Procedure: as §1, with “manner. […]” for “manner.”

[9] = test system: lipid peroxidation reaction in liposomes (AAPH system); assay: NBD-TEEPO assay in artificial lipid membranes, AAPH system; format: biochemical; details: AAPH 20 mM, AsA 0-20 μM, after 40 minutes
Procedure: as §3

Structure (SMILES)	lipid peroxidation inhibitory effects (HepG2 cells [4])	cell death inhibitory effects (HepG2 cells [8])	other results
Oc1cc(O)c2c(c1)O[C@H](c1ccc(O)c(O)c1)[C@H](O)C2 [Catechin, (−)-epicatechin]			inhibitory effect on AA- and tBHP-induced fluorescence increase (HepG2 cells [1]): strongest inhibitory effect
NC(=O)c1cccc(-c2ccc3nc(-c4cccc(OCCO)c4)c(NCCN4CCOCC4)n3c2)c1 [Compound 73, 3-(2-(3-(2-Hydroxyethoxy)phenyl)-3-((2-morpholinoethyl)amino)imidazo[1,2-a]pyridin-6-yl)benzamide]			inhibition rates (cell death inhibition) in both AA-added and tBHP-added systems (HepG2 cells [2]): high inhibition rates in both systems
CN1CC[C@]2(C)c3cc(O)ccc3N(C)[C@H]12 [Compound W, (−)-eseroline fumarate]			permeability to blood-retinal barrier (BRB) [3]: highly permeable
COc1cc(NS(C)(=O)=O)ccc1Nc1c2ccc(C)cc2nc2c1[nH]c1ccccc12 [Compound 80, N-(3-Methoxy-4-((3-methyl-1-10H-indolo[3,2-b]quinolin-11-yl)amino)phenyl)methanesulfonamide]	highest		cytotoxicity (HepG2 cells [5]): extremely high; activity values (lipid peroxidation inhibition) in both AA-added and tBHP-added systems (HepG2 cells [6]): hit compounds
CC1=NN(c2ccccc2)C(=O)C1 [Eda, Edaravone]			inhibition of NBD-TEEPO fluorescence increase [7]: inhibited the fluorescence increase concentration-dependently
CSc1ccc(-n2ccc3cc(N)ccc32)cc1 [Compound 78-6, 1-(4-(Methylthio)phenyl)-1H-indol-5-amine]	high	high	
COC(=O)c1ccc(Nc2ccc(OC)cc2)c(N)c1 [Compound 52-1, Methyl 3-amino-4-((4-methoxyphenyl)amino)benzoate]	high	high	
O=C1O[C@H]([C@@H](O)CO)C(O)=C1O [AsA, ascorbic acid]			inhibition of NBD-TEEPO fluorescence increase [9]: inhibited the fluorescence increase concentration-dependently
Nc1ccc2c(ccn2-c2ccc(OC(F)(F)F)cc2)c1 [Compound 78-8]	high	high	
COc1ccc(-n2ccc3cc(N)ccc32)cc1 [Compound 78-5, 1-(4-Methoxyphenyl)-1H-indol-5-amine]	high	high	
CN(C)c1cc2c(cc1N)-c1ccccc1C2 [Compound 64, N^2,N^2-Dimethyl-9H-fluorene-2,3-diamine]			activity values (lipid peroxidation inhibition) in both AA-added and tBHP-added systems (HepG2 cells [6]): hit compounds
Cc1cc(C)cc(N2CCc3ccc(N)cc32)c1 [Compound 78-4, 1-(3,5-Dimethylphenyl)indolin-6-amine]	high	high	
COC(=O)c1ccc(Nc2ccccc2)c(N)c1 [Compound 52, Methyl 3-amino-4-(phenylamino)benzoate]	high	high	inhibition rates (cell death inhibition) in both AA-added and tBHP-added systems (HepG2 cells [2]): high inhibition rates in both systems
Cc1cc(C)cc(-n2ccc3ccc(N)cc32)c1 [Compound 78-3, 1-(3,5-Dimethylphenyl)-1H-indol-6-amine]	high	high	
COC(=O)c1ccc(Nc2cccc(OC)c2)c(N)c1 [Compound 52-3, Methyl 3-amino-4-((3-methoxyphenyl)amino)benzoate]	high	high	
Nc1ccc2c(c1)CCN2c1ccc(OC(F)(F)F)cc1 [Compound 78, 1-(4-(Trifluoromethoxy)phenyl)indolin-5-amine]	high	high	inhibition rates (cell death inhibition) in both AA-added and tBHP-added systems (HepG2 cells [2]): high inhibition rates in both systems
CC(Nc1ccc(Nc2ccccc2)cc1)C(=O)Nc1ccc(S(N)(=O)=O)cc1 (centres unmarked) [Compound 7, 2-((4-(Phenylamino)phenyl)amino)-N-(4-sulfamoylphenyl)propanamide]			activity values (lipid peroxidation inhibition) in both AA-added and tBHP-added systems (HepG2 cells [6]): hit compounds
C/C(=N/Nc1nnc(Nc2ccccc2Cl)s1)c1ccccn1 [Compound 19]			inhibition rates (cell death inhibition) in both AA-added and tBHP-added systems (HepG2 cells [2]): high inhibition rates in both systems
CN(C1CC(C)(C)N(O)C(C)(C)C1)S(=O)(=O)CC12CCC(CC1=O)C2(C)C (centres unmarked) [Compound 39, 1-(7,7-Dimethyl-2-oxobicyclo[2.2.1]heptan-1-yl)-N-(1-hydroxy-2,2,6,6-tetramethylpiperidin-4-yl)-N-methylmethanesulfonamide]			inhibition rates (cell death inhibition) in both AA-added and tBHP-added systems (HepG2 cells [2]): high inhibition rates in both systems
COC(=O)c1ccc(NCc2ccccc2)c(N)c1 [Compound 52-4, Methyl 3-amino-4-(benzylamino)benzoate]	high	high	
COc1cc(/C=C/c2ccc3cccc([N+](=O)[O-])c3n2)cc(OC)c1O [Compound 48, 2,6-Dimethoxy-4-(2-(8-nitroquinolin-2-yl)vinyl)phenol]			activity values (lipid peroxidation inhibition) in both AA-added and tBHP-added systems (HepG2 cells [6]): hit compounds
